Measurements from patent US12077503B2, “Substituted cyclic amides and their use as herbicides” (FMC CORPORATION, priority 2015, dated 2024).

Assays:
Type in all cases: in vivo
[1] = tested on: pigweed (Amaranthus retroflexus); assay: Test A preemergence; details: Amaranthus retroflexus, pre-emergence, 240 h
[2] = tested on: Kochia (Kochia scoparia); assay: Test A preemergence; details: Bassia scoparia, pre-emergence, 240 h
Method in brief: (§1)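 Seeds sprayed preemergence with a directed soil spray, or plants at 2 to 10 cm height and one- to two-leaf stage sprayed postemergence, with test chemicals in a non-phytotoxic solvent mixture containing surfactant, in loam soil–sand blend. Injury rated visually against untreated controls after about 10 d in greenhouse, 0 (no effect) to 100 (complete control).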

[3] = tested on: ragweed (common ragweed, Ambrosia elatior); assay: Test A preemergence; details: Ambrosia artemisiifolia, pre-emergence, 240 h
Method in brief: as §1

[4] = tested on: giant foxtail (Setaria faberii); assay: Test A preemergence; details: Setaria faberi, pre-emergence, 240 h
Method in brief: as §1

[5] = tested on: ryegrass, Italian (Italian ryegrass, Lolium multiflorum); assay: Test A preemergence; details: Lolium multiflorum, pre-emergence, 240 h
Method in brief: as §1

[6] = tested on: barnyardgrass (Echinochloa crus-galli); assay: Test A preemergence; details: Echinochloa crus-galli, pre-emergence, 240 h
Method in brief: as §1

[7] = tested on: pigweed (Amaranthus retroflexus); assay: Test A postemergence; details: Amaranthus retroflexus, post-emergence, 240 h, postemergence, approx. 10 d
Method in brief: as §1

[8] = tested on: Galium (catchweed bedstraw, Galium aparine); assay: Test A postemergence; details: Galium, post-emergence, 240 h, postemergence, approx. 10 d
Method in brief: as §1

[9] = tested on: Kochia (Kochia scoparia); assay: Test A postemergence; details: Bassia scoparia, post-emergence, 240 h, postemergence, approx. 10 d
Method in brief: as §1

[10] = tested on: ragweed (common ragweed, Ambrosia elatior); assay: Test A postemergence; details: Ambrosia artemisiifolia, post-emergence, 240 h, postemergence, approx. 10 d
Method in brief: as §1

[11] = tested on: giant foxtail (Setaria faberii); assay: Test A postemergence; details: Setaria faberi, post-emergence, 240 h, postemergence, approx. 10 d
Method in brief: as §1

[12] = tested on: wheat (Triticum aestivum); assay: Test A postemergence; details: Triticum aestivum, post-emergence, 240 h, postemergence, approx. 10 d
Method in brief: as §1

[13] = tested on: corn (Zea mays); assay: Test A postemergence; details: Zea mays, post-emergence, 240 h
Method in brief: as §1

[14] = tested on: ryegrass, Italian (Italian ryegrass, Lolium multiflorum); assay: Test A postemergence; details: Lolium multiflorum, post-emergence, 240 h, postemergence, approx. 10 d
Method in brief: as §1

[15] = tested on: barnyardgrass (Echinochloa crus-galli); assay: Test A postemergence; details: Echinochloa crus-galli, post-emergence, 240 h, read-out: Plant response rating, Barnyardgrass
Method in brief: as §1

[16] = 125 g ai/ha, Postemergence, visual injury after approximately 10 d, 0 to 100 scale where 0 is no effect and 100 is complete control
[17] = 500 g ai/ha, postemergence, visual injury, 0 to 100 scale (0 no effect, 100 complete control), approx. 10 d

Work on `CSc1ccccc1NC(=O)[C@H]1C(=O)NC[C@@H]1c1ccc(C)c(C)c1` [Compound 1036] yielded a pest or weed control at 125 g/ha ([1]; 125 g ai/ha, Preemergence, visual injury rating after approximately 10 d, read-out: Pigweed plant response rating (0 to 100 scale, 0 is no effect, 100 is complete control)) of 0%, a pest or weed control at 500 g/ha ([1]; 500 g ai/ha, preemergence, visual injury rating about 10 d after treatment, 0 to 100 scale (0 no effect, 100 complete control), read-out: Pigweed plant response rating) of 0% and a pest or weed control at 125 g/ha ([2]; 125 g ai/ha, Preemergence, visual injury rating after approximately 10 d, read-out: Kochia plant response rating (0 to 100 scale, 0 is no effect, 100 is complete control)) of 70%. It also gave a pest or weed control at 500 g/ha ([2]; 500 g ai/ha, preemergence, visual injury rating about 10 d after treatment, 0 to 100 scale (0 no effect, 100 complete control), read-out: Kochia plant response rating) of 90%, a pest or weed control at 125 g/ha ([3]; 125 g ai/ha, Preemergence, visual injury rating after approximately 10 d, read-out: Ragweed plant response rating (0 to 100 scale, 0 is no effect, 100 is complete control)) of 0% and a pest or weed control at 500 g/ha ([3]; 500 g ai/ha, preemergence, visual injury rating about 10 d after treatment, 0 to 100 scale (0 no effect, 100 complete control), read-out: Ragweed plant response rating) of 50%. For the same compound, the pest or weed control at 125 g/ha ([4]; 125 g ai/ha, Preemergence, visual injury rating after approximately 10 d, read-out: Foxtail, Giant plant response rating (0 to 100 scale, 0 is no effect, 100 is complete control)) was 70%, the pest or weed control at 500 g/ha ([4]; 500 g ai/ha, preemergence, visual injury rating about 10 d after treatment, 0 to 100 scale (0 no effect, 100 complete control), read-out: Foxtail, Giant plant response rating) was 90% and the pest or weed control at 125 g/ha ([5]; 125 g ai/ha, Preemergence, visual injury rating after approximately 10 d, read-out: Ryegrass, Italian plant response rating (0 to 100 scale, 0 is no effect, 100 is complete control)) was 20%. It also gave a pest or weed control at 500 g/ha ([5]; 500 g ai/ha, preemergence, visual injury rating about 10 d after treatment, 0 to 100 scale (0 no effect, 100 complete control), read-out: Ryegrass, Italian plant response rating) of 20%, a pest or weed control at 125 g/ha ([6]; 125 g ai/ha, Preemergence, visual injury rating after approximately 10 d, read-out: Barnyardgrass plant response rating (0 to 100 scale, 0 is no effect, 100 is complete control)) of 90% and a pest or weed control at 500 g/ha ([6]; 500 g ai/ha, preemergence, visual injury rating about 10 d after treatment, 0 to 100 scale (0 no effect, 100 complete control), read-out: Barnyardgrass plant response rating) of 90%. The pest or weed control at 125 g/ha ([7]; 125 g ai/ha, visual injury on 0 to 100 scale (0 no effect, 100 complete control), read-out: Pigweed plant response rating) was 0%, the pest or weed control at 500 g/ha ([7]; 500 g ai/ha, visual injury, 0 to 100 scale (0 no effect, 100 complete control), read-out: Plant response rating, Pigweed) was 0% and the pest or weed control at 125 g/ha ([8]; 125 g ai/ha, visual injury on 0 to 100 scale (0 no effect, 100 complete control), read-out: Galium plant response rating) was 20%. It also gave a pest or weed control at 500 g/ha ([8]; 500 g ai/ha, visual injury, 0 to 100 scale (0 no effect, 100 complete control), read-out: Plant response rating, Galium) of 30%, a pest or weed control at 125 g/ha ([9]; 125 g ai/ha, visual injury on 0 to 100 scale (0 no effect, 100 complete control), read-out: Kochia plant response rating) of 0% and a pest or weed control at 500 g/ha ([9]; 500 g ai/ha, visual injury, 0 to 100 scale (0 no effect, 100 complete control), read-out: Plant response rating, Kochia) of 0%. For the same compound, the pest or weed control at 125 g/ha ([10]; 125 g ai/ha, visual injury on 0 to 100 scale (0 no effect, 100 complete control), read-out: Ragweed plant response rating) was 0%, the pest or weed control at 500 g/ha ([10]; 500 g ai/ha, visual injury, 0 to 100 scale (0 no effect, 100 complete control), read-out: Plant response rating, Ragweed) was 10% and the pest or weed control at 125 g/ha ([11]; 125 g ai/ha, visual injury on 0 to 100 scale (0 no effect, 100 complete control), read-out: Foxtail, Giant plant response rating) was 0%. For the same compound, the pest or weed control at 500 g/ha ([11]; 500 g ai/ha, visual injury, 0 to 100 scale (0 no effect, 100 complete control), read-out: Plant response rating, Foxtail, Giant) was 60%, the plant injury at 125 g/ha ([12]; 125 g ai/ha, visual injury on 0 to 100 scale (0 no effect, 100 complete control), read-out: Wheat plant response rating) was 0% and the plant injury at 500 g/ha ([12]; 500 g ai/ha, visual injury, 0 to 100 scale (0 no effect, 100 complete control), read-out: Plant response rating, Wheat) was 20%. It also gave a Corn plant response rating (crop injury, 0 = no effect, 100 = complete kill) at 125 g/ha [13, 16] of 0%, a Corn plant response rating (crop injury, 0 = no effect, 100 = complete kill) at 500 g/ha [13, 17] of 20% and a pest or weed control at 125 g/ha ([14]; 125 g ai/ha, visual injury on 0 to 100 scale (0 no effect, 100 complete control), read-out: Ryegrass, Italian plant response rating) of 0%. It also gave a pest or weed control at 500 g/ha ([14]; 500 g ai/ha, visual injury, 0 to 100 scale (0 no effect, 100 complete control), read-out: Plant response rating, Ryegrass, Italian) of 60%, a pest or weed control at 125 g/ha [15, 16] of 70% and a pest or weed control at 500 g/ha [15, 17] of 90%.
